# Assay results reported in US5723494A, “Derivatives of glutamic and aspartic acids, a method of preparing them, and their use as drugs for enhancing memory and learning” (priority 1993, dated 1998).
# What was measured:
# [1] = molecular target: excitor amino-acid receptors of cortical membranes ("forebrain") of rats; experiment: Inhibition of the specific binding of [3H]-glutamate to rat forebrain membranes; conditions: for IC50: rat forebrain membranes, 20 min, 37° C., pH 7.1
# Description: 6) Studies on binding to rat "forebrain" membranes
# L-glutamate recognizes all three receptor subtypes indicated above, al though not selectively. It is therefore desirable to evaluate the capacity of each of the compounds of the invention to interact with the excitor amino-acid receptors of the CNS.
# "Forebrain", that is, the cerebral cortex and the hippocampus, were selected as the receptor tissue and ^3 H-L-glutamate as the ligand for marking this heterogenous receptor population.
# Rat cerebral tissue (forebrain without striated tissue) was therefore homogeneised cold in tris buffer at pH 7.4. After washing and centrifuging, the final pellet was resuspended in 50 volumes of tris HCl binding buffer at 7.1. 0.5 ml of receptor membrane thus obtained were then incubated, together with the radioactive tracer and the compounds under test, for 20 min at 37° C. The reaction was terminated by separating the bound radio-ligand from the free radio-ligand by filteration on glass-fibre filters which, after washing, were counted in a liquid scintillator (a β-counter) thus determining the radioactivity associated with the pellet. The specific binding was determined as the difference between the binding in the absence and in the presence of cold 3.6 mM L-glutamate.
# [2] = Antidepressant activity in the behavioural despair test in the mouse; format: in vivo, mouse (male CD1); conditions: for inhibition in vivo at 3 mg/kg / inhibition in vivo at 10 mg/kg / inhibition in vivo at 30 mg/kg / inhibition in vivo at 1 mg/kg: 5 min, 5 minutes, read-out: Decrease in immobility (as %) vs the controls; for inhibition in vivo at 3 mg/kg: 3 mg/kg IP; for inhibition in vivo at 10 mg/kg: 10 mg/kg IP; for inhibition in vivo at 30 mg/kg: 30 mg/kg IP; for ED50 (dose antagonising immobility time by 50%) / ED50 / Antidepressant activity (in words): IP; for inhibition in vivo at 1 mg/kg: 1 mg/kg IP; for ED50: read-out: ED50 (dose antagonising immobility time by 50%)
# Description: 5) Antidepressant activity in the "behavioural despair test" Another interesting aspect of the pharmacological activity of these products is the potent antidepressant activity which some of them display in an experimental model in the mouse, in which a state of depression is induced experimentally by the method of Porsolt et al. (Arch. Int. Pharmacodyn. 229, p. 327-336 (1977)). Male CDl mice which weighed about 20-25 g and had not fasted were used. The test consisted of inducing a state of depression in the animal which was subjected to forced swimming in a glass cylinder from which it could not escape. After a short period of vigorous activity the mouse adopted a characteristic posture of immobility which was easily identifiable; this immobility is reduced by antidepressant drugs. 1 l glass beakers, filled to 700 ml with water at a temperature of 25° C. were used for the test. The mice, 8 per group, were treated intraperitoneally with the drug under test, 30 minutes before the test. At time 0, each animal was immersed in a beaker and, after one minute during which all moved about swimming vigorously in order to escape, regardless of treatment, the observer, who was unaware of the treatment, assigned the following points: 0=animal immobile 1=minimum movement to remain afloat 2=vigorous swimming The greater the antidepressant activity of the drug, the more the animals will move about in order to try to escape from the water. The points were assigned every 15 sec for a total period of 5 min with a total of 20 observations. The antidepressant activity was determined with the use of various doses of the compound by the regression method as the ED50, that is, the dose in mg/kg of the compound which could antagonise the animal's immobility time by 50%.
# [3] = Antiamnesic activity in the mouse (step-down passive avoidance, amnesia induced by ECS); format: in vivo, mouse (CD1 male); conditions: mouse; for change in vivo at 3 mg/kg: 3 mg/kg OS; for change in vivo at 30 mg/kg: 30 mg/kg OS; for change in vivo at 10 mg/kg: 10 mg/kg OS; for Antiamnesic activity (in words) / ED50: OS; for change in vivo at 0.1 mg/kg: 0.1 mg/kg OS; for change in vivo at 1 mg/kg: 1 mg/kg OS; for ED50: 60 min before training, read-out: ID50 (antiamnesic activity, dose inhibiting the amnesic effect of the ECS by 50%)
# Description: 1) Antiamnesic activity in the mouse (step-down passive avoidance)
# An electroconvulsive shock (ECS) produces retrograde amnesia in the test animal if applied immediately after the training received, for example, a harmful stimulus of a suitable intensity.
# The object of the experiment was to study the effects of the compounds of the invention in antagonizing the amnesic effect of an ECS on the short-term memory consolidation process.
# CD1 male mice which weighed about 30-35 g, and had not fasted were used. The equipment used was a rectangular plexiglass cage (21×21×40cm) with an electrifiable grid floor and a wooden cube (4×4×4 cm) fixed in the centre of the cage. The animals were treated orally with the product under test 60 minutes before the training.
# The mouse was placed delicately on the wooden cube and the time it took to descend to the grid floor (SDL=step-down latency) was measured. When all four of the animal's paws were resting on the floor the continuous 0.2 mA shock started and the time taken by The mouse to remount the wooden cube (EL=escape latency) was measured.
# The animals with an SDL of between 3 and 30 sec and with an EL of between 3 and 60 sec were used for retesting.
# Immediately afterwards, a transcorneal ECS was applied with the use of the following parameters: amperage 15 mA, frequency 50 Hz, duration of the train of pulses 0.4 sec. duration of each individual pulse 1 msec., interval between pulses 20 msec. As well as the groups treated with ECS, a control group without ECS and a control group with ECS were used.
# The retest was carried out after 24 h.
# The results are expressed as the percentage variation of the SDL of the treated groups in comparison with the control group by means of this formula: [formula]
# [4] = Memory-enhancement activity in the passive avoidance test in the rat; format: in vivo, rat (male Wistar); conditions: rat; for change in vivo at 0.1 mg/kg / change in vivo at 1 mg/kg / change in vivo at 10 mg/kg: 96 h, 6 treatments, read-out: % variation vs controls (FS) in step through latency; for change in vivo at 0.1 mg/kg: 0.1 mg/kg IP; for change in vivo at 0.1 mg/kg / change in vivo at 1 mg/kg / change in vivo at 10 mg/kg / Activity in increasing the avoidance time (in words): retest on the 4th day; for change in vivo at 1 mg/kg: 1 mg/kg IP; for change in vivo at 10 mg/kg: 10 mg/kg IP
# Procedure: 2) Memory-enhancement activity in the "passive avoidance" test in the rat
# A "passive avoidance" model was used, which required a single "step-through" situation and a retest of the "retention memory" 72 h after the training.
# Male Wistar rats which weighed about 200 g and had not fasted, were used. The test consisted of evaluating the degree of memory of an animal after it had been trained as follows.
# The equipment used was a shuttle box modified thus: one compartment was lined with black card including the cover, and a 60 W lamp was disposed above the other, spaced from the grid floor by about 40 cm. The two compartments were divided by an automatic guillotine-like door. Each animal was placed in the compartment in the light with the guillotine-likedoor open. From this moment, the time taken by the rat to go into the compartment lined with black card (the dark compartment) (the step-throughlatency=STL) was measured. The animals which took more than 30 sec to go into the dark were discarded. Once they had gone into the dark, the door was lowered automatically and a=0.1 mA shock lasting 5 sec (a foot shock=FS) started. After 10 sec, the animal was removed from the shuttle box.
# Upon completion, the animals were selected randomly in homogeneous groups and treated with the products.
# The retest to determine memory was made after 72 hours. The products were administered chronically in the preselected manner twice per day and the last treatment 30 min before the retest (6 treatments altogether).
# The memory-retention test (the retest) consisted of placing each animal, treated 30 min beforehand with a physiological solution or with the product, in the compartment which was not lined with black card for 30 sec.
# The results are expressed as the percentage variation of the STL (in seconds) of the groups treated in comparison with the control group by means of this formula: [formula]
# [5] = po, retest 24 h after training, read-out: Reversal of the amnesia (% vs controls), as the increase in the Step Down Latency
SMILES,IC50 [1] [µM],inhibition in vivo at 3 mg/kg [2] [%],inhibition in vivo at 10 mg/kg [2] [%],inhibition in vivo at 30 mg/kg [2] [%],ED50 (dose antagonising immobility time by 50%) [2],"change in vivo at 3 mg/kg [3, 5] [%]","change in vivo at 30 mg/kg [3, 5] [%]",inhibition in vivo at 1 mg/kg [2] [%],ED50 [2] [mg/kg],"change in vivo at 10 mg/kg [3, 5] [%]",change in vivo at 0.1 mg/kg [4] [%],change in vivo at 1 mg/kg [4] [%],change in vivo at 10 mg/kg [4] [%],Antiamnesic activity (in words) [3],other results
CC(C)(C)CCNC(=O)[C@@H](N)CCC(=O)O [Compound 5],20.1,12,32,23,Not Calculable,10,22,,,,,,,,"change in vivo at 0.3 mg/kg ([3]; po, 0.3 mg/kg OS, retest 24 h after training, read-out: Reversal of the amnesia (% vs controls), as the increase in the Step Down Latency): 7%"
N[C@@H](CCC(=O)O)C(=O)NC1CCC2CCCCC2C1 (stereo partly drawn) [Compound 11],35.7,32,64,19,,3,10,5,13.5,0,,,,,
N[C@@H](CCC(=O)O)C(=O)NC12CC3CC(CC(C3)C1)C2 [Compound 14],73.3,0,0,21,Inactive,,,,,,,,,,
N[C@@H](CCC(=O)O)C(=O)NC1C2CC3CC(C2)CC1C3 (stereo partly drawn) [Compound 15],132,0,33,75,,,,,15.4,,,,,,
N[C@@H](CCC(=O)O)C(=O)NCCC12CC3CC(CC(C3)C1)C2 [Compound 16],15,46,77,98,,46,73,15,3.9,50,11,21,57,particularly remarkable,"Activity in inhibiting the binding of glutamate (in words) ([1]; rat cortical membranes): considerable activity in inhibiting the binding of the glutamate; ED30 ([4]; IP, read-out: ED30 (dose increasing the latency time (STL) by 30%)): 1 mg/kg; Activity in increasing the avoidance time (in words) ([4]; IP): considerable activity in increasing the avoidance time; Antidepressant activity (in words) [2]: antidepressant effect of the same order of magnitude as the comparison drug used, amitriptyline; change in vivo at 0.1 mg/kg [3, 5]: 0%; change in vivo at 1 mg/kg [3, 5]: 47%; ED50 ([3]; po): 4.6 mg/kg"
N[C@H](CCC(=O)O)C(=O)NCCC12CC3CC(CC(C3)C1)C2 [Compound 17],312,7,12,0,Inactive,,,,,10,0,0,0,completely inactive,"Activity in increasing the avoidance time (in words) ([4]; IP): inactive; Antidepressant activity (in words) [2]: inactive; change in vivo at 0.1 mg/kg [3, 5]: 0%; change in vivo at 1 mg/kg [3, 5]: 14%"
N[C@@H](CCC(=O)O)C(=O)N1CCC2(CCCC2)CC1 [Compound 30],368,0,25,20,Not Calculable,,,,,,,,,,
N[C@@H](CCC(=O)NCCC12CC3CC(CC(C3)C1)C2)C(=O)O [Compound 45],61.2,,,,,3,55,,,20,0,0,12,less active,ED50 ([3]; po): 28.9 mg/kg
"CC1(C)CCC(NC(=O)CC[C@H](N)C(=O)O)CC1 [Compound 48, 1-(4,4-dimethylcyclohexyl)-L-glutamine]",70.7,9,18,38,Not Calculable,,,0,,,6,0,18,,
